Test results taken from patent publication US7741354B2, “Inhibitors of glutaminyl cyclase” (Probiodrug AG, priority 2006, dated 2010).

target: hQC (Homo sapiens, UniProt Q16769); assay: Fluorometric (fluorescent) assay of hQC inhibition, IC50; type: biochemical; settings: hQC inhibition; read-out: IC50
Method: All compounds were immediately tested regarding their activity as hQC inhibitors.
The purity of the compounds was determined by HPLC-MS. The IC50 value against hQC was measured using the fluorescent assay.
All measurements were performed with a BioAssay Reader HTS-7000Plus for microplates (Perkin Elmer) at 30° C. QC activity was evaluated fluorometrically using H-Gln-βNA. The samples consisted of 0.2 mM fluorogenic substrate, 0.25 U pyroglutamyl aminopeptidase (Unizyme, Horsholm, Denmark) in 0.2 M Tris/HCl, pH 8.0 containing 20 mM EDTA and an appropriately diluted aliquot of QC in a final volume of 250 μl. Excitation/emission wavelengths were 320/410 nm. The assay reactions were initiated by addition of glutaminyl cyclase. QC activity was determined from a standard curve of β-naphthylamine under assay conditions. One unit is defined as the amount of QC catalyzing the formation of 1 μmol pGlu-βNA from H-Gln-βNA per minute under the described conditions.
In a second fluorometric assay, QC was activity determined using H-Gln-AMC as substrate. Reactions were carried out at 30° C. utilizing the NOVOStar reader for microplates (BMG labtechnologies). The samples consisted of varying concentrations of the fluorogenic substrate, 0.1 U pyroglutamyl aminopeptidase (Qiagen) in 0.05 M Tris/HCl, pH 8.0 containing 5 mM EDTA and an appropriately diluted aliquot of QC in a final volume of 250 μl. Excitation/emission wavelengths were 380/460 nm. The assay reactions were initiated by addition of glutaminyl cyclase. QC activity was determined from a standard curve of 7-amino-4-methylcoumarin under assay conditions. The kinetic data were evaluated using GraFit sofware.
For inhibitor testing, the sample composition was the same as described above, except of the putative inhibitory compound added. For a rapid test of QC-inhibition, samples contained 4 mM of the respective inhibitor and a substrate concentration at 1 KM. For detailed investigations of the inhibition and determination of Ki-values, influence of the inhibitor on the auxiliary enzymes was investigated first. […] The inhibitory constant was evaluated by fitting the set of progress curves to the general equation for competitive inhibition using GraFit software.

hQC, sequence (Q16769 29-361): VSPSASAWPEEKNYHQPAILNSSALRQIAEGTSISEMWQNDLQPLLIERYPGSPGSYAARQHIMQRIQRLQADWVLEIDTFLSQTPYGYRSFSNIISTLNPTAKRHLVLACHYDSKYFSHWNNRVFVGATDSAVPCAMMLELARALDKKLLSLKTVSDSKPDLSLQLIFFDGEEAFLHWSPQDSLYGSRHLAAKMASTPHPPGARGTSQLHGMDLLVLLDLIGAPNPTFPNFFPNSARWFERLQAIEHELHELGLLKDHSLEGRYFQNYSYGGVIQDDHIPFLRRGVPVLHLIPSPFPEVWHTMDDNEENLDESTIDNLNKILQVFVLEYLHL

| SMILES | IC50 [µM] |
| --- | --- |
| CN(C)c1ccc(C(Nc2ccc3[nH]cnc3c2)c2nnnn2Cc2cccnc2)cc1 (centres unmarked) [compound 115, (1H-Benzoimidazol-5-yl)-[(4-dimethylamino-phenyl)-(1-pyridin-3-ylmethyl-1H-tetrazol-5-yl)-methyl]-amine] | 5.8 |
| Cc1cc(C)cc(C(Nc2ccc3[nH]cnc3c2)c2nnnn2Cc2ccccc2)c1 (centres unmarked) [compound 124, (1H-Benzoimidazol-5-yl)-[(1-benzyl-1H-tetrazol-5-yl)-(3,5-dimethyl-phenyl)-methyl]-amine] | 5.8 |

Continued, values first:

| IC50 [µM] | SMILES |
| --- | --- |
| 2.2 | O=C(Cn1nnnc1C(Nc1ccc2[nH]cnc2c1)c1ccc(Br)cc1)N1CCc2ccccc2C1 (centres unmarked) [compound 199, 2-{5-[(1H-Benzoimidazol-5-ylamino)-(4-bromo-phenyl)-methyl]-tetrazol-1-yl}-1-(3,4-dihydro-1H-isoquinolin-2-yl)-ethanone] |
| 4.9 | c1ccc(C(c2ccccc2)n2nnnc2C(Nc2ccc3[nH]cnc3c2)c2cnc3ccccc3c2)cc1 (centres unmarked) [compound 126, [(1-Benzhydryl-1H-tetrazol-5-yl)-quinolin-3-yl-methyl]-(1H-benzoimidazol-5-yl)-amine] |
| 4 | Brc1ccc(C(Nc2ccc3[nH]cnc3c2)c2nnnn2Cc2cccnc2)cc1 (centres unmarked) [compound 201, (1H-Benzoimidazol-5-yl)-[(4-bromo-phenyl)-(1-pyridin-3-ylmethyl-1H-tetrazol-5-yl)-methyl]-amine] |
| 7.6 | CSc1ccc(C(Nc2ccc3[nH]cnc3c2)c2nnnn2CC2COC(C)(C)O2)cc1 (centres unmarked) [compound 130, (1H-Benzoimidazol-5-yl)-[[1-(2,2-dimethyl-[1,3]dioxolan-4-ylmethyl)-1H-tetrazol-5-yl]-(4-methylsulfanyl-phenyl)-methyl]-amine] |
| 2.2 | Brc1ccc(C(Nc2ccc3[nH]cnc3c2)c2nnnn2-c2ccccc2OCc2ccccc2)cc1 (centres unmarked) [compound 203, (1H-Benzoimidazol-5-yl)-[[1-(2-benzyloxy-phenyl)-1H-tetrazol-5-yl]-(4-bromo-phenyl)-methyl]-amine] |
| 4.9 | CCOC(=O)C1CCCCC1n1nnnc1C(Nc1ccc2[nH]cnc2c1)c1ccc(C)c(C)c1 (centres unmarked) [compound 155] |
| 8.5 | O=C1CCCN1CCCn1nnnc1C(Nc1ccc2[nH]cnc2c1)c1ccc(Br)cc1 (centres unmarked) [compound 194, 1-(3-{5-[(1H-Benzoimidazol-5-ylamino)-(4-bromo-phenyl)-methyl]-tetrazol-1-yl}-propyl)-pyrrolidn-2-one] |
| 3.1 | O=[N+]([O-])c1cc(C(Nc2ccc3[nH]cnc3c2)c2nnnn2CC2CCCO2)ccc1Cl (centres unmarked) [compound 146] |
| 3.1 | Brc1cc(Br)cc(C(Nc2ccc3[nH]cnc3c2)c2nnnn2C2CCCCC2)c1 (centres unmarked) [compound 175, (1H-Benzoimidazol-5-yl)-[(1-cyclohexyl-1H-tetrazol-5-yl)-(3,5-dibromo-phenyl)-methyl]-amine] |
| 5.8 | C1=COC(C(Nc2ccc3nc[nH]c3c2)c2nnnn2CCc2cccs2)CC1 (centres unmarked) [compound 182, (1H-Benzoimidazol-5-yl)-{(3,4-dihydro-2H-pyran-2-yl)-[1-(2-thiophen-2-yl-ethyl)-1H-tetrazol-5-yl]-methyl}-amine] |
| 9.4 | CC1(C)OCC(Cn2nnnc2C(Nc2ccc3[nH]cnc3c2)c2ccc3c(c2)OCO3)O1 (centres unmarked) [compound 138, {Benzo[1,3]dioxol-5-yl-[1-(2,2-dimethyl-[1,3]dioxolan-4-ylmethyl)-1H-tetrazol-5-yl]-methyl}-(1H-benzoimidazol-5-yl)-amine] |
| 3.1 | COc1ccc(C(Nc2ccc3[nH]cnc3c2)c2nnnn2Cc2ccc(Cl)cc2)cc1F (centres unmarked) [compound 125, (1H-Benzoimidazol-5-yl)-[[1-(4-chloro-benzyl)-1H-tetrazol-5-yl]-(3-fluoro-4-methoxy-phenyl)-methyl]-amine] |

same assay, conditions: read-out: IC50

| SMILES | IC50 [µM] |
| --- | --- |
| c1ccc2c(C(Nc3ccc4[nH]cnc4c3)c3nnnn3CC3CCCO3)csc2c1 (centres unmarked) [compound 78] | 1.3 |
| c1ccc2nc(C(NCCCn3ccnc3)c3nnnn3C[C@@H]3CCCO3)ccc2c1 (stereo partly drawn) [compound 14, (3-Imidazol-1-yl-propyl)-(quinolin-2-yl-{1-[(S)-1-(tetrahydro-furan-2-yl)methyl]-1H-tetrazol-5-yl}-methyl)-amine] | 2.2 |
| CCCCn1nnnc1C(NCCCn1ccnc1)c1ccc2cccc(O)c2n1 (centres unmarked) [compound 20, 2-[(1-Butyl-1H-tetrazol-5-yl)-(3-imidazol-1-yl-propylamino)-methyl]-quinolin-8-ol] | 2.2 |
| CC1=CCCC[C@@H]1C(NCCCn1ccnc1)c1nnnn1C1CCCC1 (stereo partly drawn) [compound 27, [(1-Cyclopentyl-1H-tetrazol-5-yl)-((S)-2-methyl-cyclohex-2-enyl)-methyl]-(3-imidazol-1-yl-propyl)-amine] | 6.7 |
| COc1cc(C)c(C(Nc2ccc3[nH]cnc3c2)c2nnnn2C(C)(C)C)cc1C (centres unmarked) [compound 99] | 8.5 |
| CC(C)(C)OC(=O)Cn1nnnc1C(Nc1ccc2[nH]cnc2c1)c1ccc(Cl)c(F)c1 (centres unmarked) [compound 91, {5-[(1H-Benzoimidazol-5-ylamino)-(4-chloro-3-fluoro-phenyl)-methyl]-tetrazol-11-yl}-acetic acid tert-butyl ester] | 4 |
| CC(CC(Nc1ccc2[nH]cnc2c1)c1nnnn1C(C)(C)C)c1ccccc1 (centres unmarked) [compound 106, (1H-Benzoimidazol-5-yl)-[1-(1-tert-butyl-1H-tetrazol-5-yl)-3-phenyl-butyl]-amine] | 6.7 |
| COc1ncc(C(NCCCn2ccnc2)c2nnnn2C(C)(C)C)c(OC)n1 (centres unmarked) [compound 62, [(1-tert-Butyl-1H-tetrazol-5-yl)-(2,4-dimethoxy-pyrimidin-5-yl)-methyl]-(3-imidazol-1-yl-propyl)-amine] | 8.5 |
| Fc1cc(C(Nc2ccc3[nH]cnc3c2)c2nnnn2C2CCCCC2)ccc1Cl (centres unmarked) [compound 107, (1H-Benzoimidazol-5-yl)-[(4-chloro-3-fluoro-phenyl)-(1-cyclohexyl-1H-tetrazol-5-yl)-methyl]-amine] | 4.9 |
| CCCCn1nnnc1C(NCCCn1ccnc1)c1cc(C)ccc1O (centres unmarked) [compound 19, 2[(1-Butyl-1H-tetrazol-5-yl)-(3-imidazol-1-yl-propylamino)-mehtyl]-4-methyl-phenol] | 2.2 |
| c1ccc2oc(C(NCCCn3ccnc3)c3nnnn3C[C@@H]3CCCO3)cc2c1 (stereo partly drawn) [compound 15, (Benzofuran-2-yl-{1-[(S)-1-(tetrahydro-furan-2-yl)methyl]-1H-tetrazol-5-yl}-methyl)-(3-imidazol-1-yl-propyl)-amine] | 6.7 |
| C=CCn1nnnc1C(NCCCn1ccnc1)c1ccc2[nH]ccc2c1 (centres unmarked) [compound 46, [(1-Allyl-1H-tetrazol-5-yl)-(1H-indol-5-yl)-methyl]-(3-imidazol-1-yl-propyl)-amine] | 7.6 |
| Cc1ccc2c(C(NCCCn3ccnc3)c3nnnn3C[C@@H]3CCCO3)c[nH]c2c1 (stereo partly drawn) [compound 16, (3-Imidazol-1-yl-propyl)-((6-methyl-1H-indol-3-yl)-{1-[(S)-1-(tetrahydro-furan-2-yl)methyl]-1H-tetrazol-5-yl}-methyl)-amine] | 7.6 |
| Clc1ccccc1Cn1nnnc1C(Nc1ccc2[nH]cnc2c1)c1cc2ccccc2o1 (centres unmarked) [compound 90, {Benzofuran-2-yl-[1-(2-chloro-benzyl)-1H-tetrazol-5-yl]-methyl}-(1H-benzoimidazol-5-yl)-amine] | 22.2 |
| COC(=O)Cn1nnnc1C(NCCCn1ccnc1)c1ccc(F)c(C#N)c1 (centres unmarked) [compound 53, {5-[(3-Cyano-4-fluoro-phenyl)-(3-imidazol-1-yl-propylamino)-methyl]-tetrazol-1-yl}-acetic methyl ester] | 4 |
| COC(=O)Cn1nnnc1C(NCCCn1ccnc1)[C@@H]1CCC=CO1 (stereo partly drawn) [compound 56, {5-[(S)-3,4-Dihydro-2H-pyran-2-yl-(3-imidazol-1-yl-propylamino)-methyl]-tetrazol-1-yl}-acetic methyl ester] | 4.9 |
| CCOC(=O)C1CCCCC1n1nnnc1C(Nc1ccc2[nH]cnc2c1)c1ccc(Br)cc1 (centres unmarked) [compound 103] | 4.9 |
| COCCn1nnnc1C(NCCCn1ccnc1)c1cc(C)c(C)cc1C (centres unmarked) [compound 43, (3-Imidazol-1-yl-propyl)-[[1-(2-methoxy-ethyl)-1H-tetrazol-5-yl]-(2,4,5-trimethyl-phenyl)-methyl]-amine] | 7.6 |
| Cc1ccc2occ(C(Nc3ccc4[nH]cnc4c3)c3nnnn3CC3CCCO3)c(=O)c2c1 (centres unmarked) [compound 86, 3-{(1H-Benzoimidazol-5-ylamino)-[1-(tetrahydro-furan-2-ylmethyl)-1H-tetrazol-5-yl]-methyl}-6-methyl-chromen-4-one] | 9.4 |
| COC(=O)Cn1nnnc1C(NCCCn1ccnc1)c1ccc2cccc(O)c2n1 (centres unmarked) [compound 52] | 4.9 |
| Clc1ccc(C(NCCCn2ccnc2)c2nnnn2C[C@@H]2CCCO2)cc1Cl (some centres unmarked) [compound 10] | 4 |
